“And” between values parts separate entries of the source, which are not always exact repeats. Equal entries are not always repeated. ± gives the expanded uncertainty stated by the source.
How the values were obtained:
[1] = Crystal; for vapor or sublimation pressure: Transpiration method; for Normal melting temperature: DTA
[2] = Molar enthalpy of transition or fusion; conditions: Crystal; DSC

Row | Structure (SMILES) | vapor or sublimation pressure ([1]; 362.7 K) [kPa] | vapor or sublimation pressure ([1]; 367.8 K) [kPa] | vapor or sublimation pressure ([1]; 373 K) [kPa] | vapor or sublimation pressure ([1]; 378 K) | vapor or sublimation pressure ([1]; 383 K) | vapor or sublimation pressure ([1]; 388 K) [kPa] | vapor or sublimation pressure ([1]; 392.7 K) [kPa] | Normal melting temperature [1] [°C] | Molar enthalpy of transition or fusion [2] [kcal/mol] | vapor or sublimation pressure ([1]; 352.9 K) [kPa] | vapor or sublimation pressure ([1]; 358.2 K) [kPa] | vapor or sublimation pressure ([1]; 362.9 K) [kPa] | vapor or sublimation pressure ([1]; 373.2 K) [kPa] | vapor or sublimation pressure ([1]; 387.9 K) [kPa]
1 | O=C(O)[C@@H](O)c1ccccc1 [(S)-2-hydroxy-2-phenylacetic acid] | 0.0016 ± 0.00062 | 0.00264 ± 0.001 | 0.00431 ± 0.0016 | 0.00647 ± 0.0026 kPa | 0.0109 ± 0.0042 kPa and 0.0107 ± 0.0041 kPa | 0.0164 ± 0.0061 | 0.0241 ± 0.0088 | 134.6 ± 1.1 | 5.93 ± 0.143 |  |  |  |  | 
2 | O=C(O)C(O)c1ccccc1 (stereo not drawn) [mandelic acid] |  | 0.00284 ± 0.0011 |  | 0.0076 ± 0.003 kPa and 0.00771 ± 0.0031 kPa |  |  |  | 121.2 ± 1.1 | 6 ± 0.167 | 0.00068 ± 0.0003 | 0.00116 ± 0.00048 | 0.00193 ± 0.00074 | 0.0051 ± 0.0022 | 0.0179 ± 0.0067

From the NIST ThermoML archive (doi:10.1016/j.tca.2018.05.010)
